Measured values taken from patent US20260014184A1, “ADENOSINE DERIVATIVES FOR USE IN THE TREATMENT OF NEURODEGENERATIVE DISORDERS AND CANCER” (UNIVERSITY COLLEGE CARDIFF CONSULTANTS LIMITED, priority 2022, published 2026).

Legend:
Type in all cases: cell-based
PINK1 KO MEFs = test: MitoQC mitophagy assay, PINK1 knock-out MEF; conditions: 5 μM, 24 h
Description: (§1) With the inhibition of ubiquitin phosphorylation and parkin localisation to the mitochondria by kinetin riboside and the nucleoside analogue 9c, we next asked whether these compounds still induce mitophagy in a PINK1 dependent manner. To explore this, we employed the established MitoQC assay for measuring mitophagy in cells^11,12.

Ub Ser65 phosphorylation [1] = test: Immunofluorescence for Ub Ser65 phosphorylation in YFP-parkin transfected HeLa cells; conditions: immunofluorescence; for impact on ubiquitin phosphorylation, compound alone: 50 μM, 24 h, no niclosamide or CCCP
Experimental: (§2) Cells were seeded on PerkinElmer PhenoPlate 96-well plates, followed by treatment with compounds. Cells were fixed in chilled 4% PFA for 10 min followed by washes in PBS. […] Following PBS washes, cells were blocked using blocking buffer (PBS, 5% BSA, 0.1% Tween20) for 1 h at room temperature. Primary antibodies were diluted in blocking buffer and added to cells to be incubated overnight at 4° C. Cells were subsequently washed with PBS-T and the appropriate secondary antibodies (diluted in blocking buffer) were added for 2 h at room temperature in darkness. 10 μg/ml of Hoechst 33258 stain was added with secondary antibodies when required. Cells were again washed with PBS-T followed by addition of PBS with 0.02% sodium azide. Cells were then stored at 4° C. until ready for imaging. Primary antibodies used for immunofluorescence are as follows: Phospho-Ub Ser 65 (Sigma-Aldrich cat #ABS1513-1), TOM20 (Santa-Cruz cat #sc-17764). Secondary antibodies and stains used in immunofluorescence; Anti-IgG2a Alexa Fluor™ 546 (ThermoFisher cat #A21133) Anti-rabbit Alexa Fluor™ 647 (ThermoFisher cat #A21244), Hoechst 33258 stain (Sigma-Aldrich cat #B2883).
(§3) Confocal microscopy was performed using a Zeiss LSM800 w/Airyscan fluorescent microscope equipped with lasers emitting at 405 nm, 488 nm, 561 nm and 640 nm. All images were captured using a 40x oil immersion objective lens and processed using Zeiss ZEN software. Images were analysed and quantified using Columbus (PerkinElmer) and TIBCO Spotfire software.
(§4) First, HeLa cells transfected with YFP-parkin were either left untreated or treated with 50 μM kinetin riboside, nucleosides 9a and 9c for 24 h.

[2] = test system: immortalised MEF expressing PINK1 wild-type (WT); test: MitoQC mitophagy assay, MEF expressing PINK1 wild-type; conditions: 5 μM, 24 h
Description: as §1

Ub Ser65 phosphorylation [3] = test: Phospho-Ub (Ub Ser65) immunoblotting in parkin- or YFP-parkin-transfected HeLa cells; conditions: for inhibition of PINK1-mediated ubiquitin phosphorylation (summary statement): in cells and astrocytes, induced by mitochondrial depolarizing agents CCCP and niclosamide
Experimental: Both HeLa and parkin-overexpressed HeLa cells were maintained in DMEM high glucose (Gibco), 10% FBS (Sigma-Aldrich) at 37° C. with 5% CO2. For experiments, cells were counted and seeded into a range of culture plates, depending on the experiment, cell counting was done using the Cellometer Auto T4 with TrypanBlue (Gibco). […] Alternatively, HeLa cells were seeded in well plates and then transfected with […] of parkin cDNA using the PEI method once the plated cells reached 60% confluency. After 6 hours, the media was changed. Sub-culturing was done when the cells reached ˜90% confluency.
Cell culture with 70-80% confluency was lysed as follows: cells were washed with Phosphate Buffer Saline (PBS) (Sigma). 150 μl of lysis buffer was used on each well containing either: • 50 mM Tris-HCl pH 7.5, 1 mM EDTA, 1 mM EGTA, 0.27 M sucrose, 1 mM Na3VO4, 50 mM NaF, 5 mM Na pyrophosphate and fresh 1 mM benzamidine, 1% NP-40 and […]; or • 50 mM Tris-HCl pH 7.5, 1 mM EDTA, 1 mM EGTA, 10 mM Na β-glycerophosphate, 0.27 M sucrose, 1 mM Na3VO4, 50 mM NaF, 10 mM Na pyrophosphate with fresh 1 mM benzamidine, 1% Triton X-100, complete EDTA-free Protease Inhibitor, Phosphatase inhibitor cocktail 3 and 100 μM of 2-chloroacetamide.
The cells were scrapped and transferred to the microtube and eventually spun down at 12,000 rpm for 15 minutes at 4° C. Finally, the supernatant was transferred to the new microtubes and stored at −20° C. Protein concentration was measured using Bradford Assay. Serial concentrations 0.125; 0.25; 0.5 and 1 mg/ml of Bovine Serum Albumin (BSA) (Sigma Aldrich) were used as a standard. Samples were boiled at 90° C. for 5 minutes in SDS sample loading buffer.
The next day membranes were washed in TBST and incubated with horse radish peroxidase (HRP)-conjugated antibodies for 1 h at room temperature with agitation. Following TBST washes, proteins were visualised using Amersham™ ECL™ Prime kit (GE Biosciences) and imaged using the Bio-rad ChemicDoc. Primary antibodies used for western blotting; GAPDH (Abcam cat #ab9485), Phospho-Ub Ser 65 (Sigma-Aldrich cat #ABS1513-1), LC3B (Cell Signaling cat #3868S). Secondary antibodies used for western blotting; anti-rabbit HRP (Agilent Dako cat #P0399), anti-mouse HRP (Agilent Dako cat #P0260).
To explore this, we first treated parkin-transfected HeLa cells for 24 h with 50 μM kinetin, kinetin riboside or kinetin riboside ProTide, a monophosphate prodrug of kinetin riboside.

[4] = test system: HeLa cells transfected with YFP-parkin; test: Immunofluorescence for YFP-parkin localisation and TOM20 (mitochondrial fragmentation); conditions: for parkin localisation to the mitochondria after pre-treatment followed by CCCP, compared to CCCP alone: 50 μM 24 h, then 10 μM CCCP; for impact on mitochondrial fragmentation (TOM20), compound alone / impact on parkin localisation, compound alone: 50 μM, 24 h, no niclosamide or CCCP
Experimental: as §2, §3, §4

Row | Structure (SMILES) | mitophagy in PINK1 KO MEFs (PINK1 KO MEFs) | reduction in ubiquitin phosphorylation and parkin localisation compared with kinetin riboside (Ub Ser65 phosphorylation [1]; 50 μM 24 h, then 10 μM CCCP) | ubiquitin Ser65 phosphorylation after pre-treatment followed by CCCP, compared to CCCP alone (Ub Ser65 phosphorylation [1]; 50 μM 24 h, then 10 μM CCCP) | impact on ubiquitin phosphorylation, compound alone (Ub Ser65 phosphorylation [1]) | level and PINK1 dependence of mitophagy (WT versus KO MEFs) [2] | mitophagy in PINK1 WT MEFs [2] | inhibition of PINK1-mediated ubiquitin phosphorylation (summary statement) (Ub Ser65 phosphorylation [3]) | parkin localisation to the mitochondria after pre-treatment followed by CCCP, compared to CCCP alone [4] | impact on mitochondrial fragmentation (TOM20), compound alone [4] | impact on parkin localisation, compound alone [4] | inhibition of ubiquitin phosphorylation by pre-treatment (Ub Ser65 phosphorylation [1]; YFP-parkin HeLa cells, 50 μM 24 h prior to 10 μM niclosamide or CCCP 1 h) | inhibition of CCCP-induced phosphorylation of ubiquitin by pre-treatment (Ub Ser65 phosphorylation [3]; YFP-parkin HeLa cells, 50 μM 24 h, then 10 μM CCCP 1 h, immunoblot) | inhibition of niclosamide-induced phosphorylation of ubiquitin by pre-treatment (Ub Ser65 phosphorylation [3]; YFP-parkin HeLa cells, 50 μM 24 h, then 10 μM niclosamide 1 h, immunoblot) | inhibition of CCCP-induced phosphorylation of ubiquitin by pre-treatment (Ub Ser65 phosphorylation [3]; parkin-transfected HeLa cells, 50 μM 24 h, then 10 μM CCCP 3 h, immunoblot) | phosphorylation of ubiquitin (Ub Ser65), compound alone (Ub Ser65 phosphorylation [3]; parkin-transfected HeLa cells, 50 μM, 24 h, no CCCP, immunoblot)
1 | OC[C@H]1O[C@@H](n2cnc3c(NCc4ccccc4)ncnc32)[C@H](O)[C@@H]1O [9c, (2R,3R,4S,5R)-2-(6-(benzylamino)-9H-purin-9-yl)-5-(hydroxymethyl)tetrahydrofuran-3,4-diol] | not observed | appears stronger than that induced by kinetin riboside | significant reduction | did not have any impact | low level of mitophagy in a PINK1-dependent manner | induced mitophagy | inhibit ubiquitin phosphorylation | significant reduction | did not have any impact | did not have any impact |  |  |  |  | 
2 | OC[C@H]1O[C@@H](n2cnc3c(NCc4ccco4)ncnc32)[C@H](O)[C@@H]1O [kinetin riboside, N^6-(2-furanylmethyl) adenosine] | not observed |  | inhibited | did not have any impact | low level of mitophagy in a PINK1-dependent manner | induced mitophagy | inhibit ubiquitin phosphorylation | inhibition | did not have any impact | did not have any impact | inhibited ubiquitin phosphorylation | inhibited | inhibited | inhibited the CCCP-induced phosphorylation of ubiquitin | did not lead to any notable phosphorylation of ubiquitin
